Like-named read-outs stand apart in the source and are kept apart here.
Columns and labels:
[1] = test system: Mycosphaerella graminicola; Anamorph: Septoria tritici; assay: Leaf Blotch of Wheat (SEPTTR) disease control; type: in vivo; details: Zymoseptoria tritici; for pest or weed control at 100 ppm: rate 100 ppm; for pest or weed control at 121.5 g/ha: rate 121.5 g/H
Procedure, shortened: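 Wheat seedlings (Yuma, first leaf emerged) sprayed to run-off with compound in acetone/water with 110 ppm Triton X-100, or track-sprayed as EC with 0.1% Trycol 5941. Septoria tritici spores inoculated before or after treatment. Dew chambers, then 20 °C greenhouse. Percent disease control derived from severity (0–100%) relative to untreated plants.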

[2] = test system: Puccinia triticina; Synonym: Puccinia recondite f. Sp. Tritici; assay: Wheat Brown Rust (PUCCRT) disease control; type: in vivo; details: Puccinia triticina, topical; for pest or weed control at 100 ppm: rate 100 ppm; for pest or weed control at 121.5 g/ha: rate 121.5 g/H
Procedure, shortened: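 Brown rust on first-leaf Yuma wheat: spore inoculation before or after spray application (acetone/Triton X-100 solution, or EC with Trycol in track spray), overnight 100% RH at 22 °C, disease developed at 24 °C. Severity scored 0–100% and converted to percent control against untreated.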

[3] = 24 h, 1 Day Protectant, read-out: SEPTTR 1 DP disease control
[4] = 72 h, 3 Day Curative, read-out: SEPTTR 3 DC disease control
[5] = 24 h, 1 Day Protectant, read-out: PUCCRT 1 DP disease control
[6] = 72 h, 3 Day Curative, read-out: PUCCRT 3 DC disease control

COc1ccnc(C(=O)N[C@H]2CCC[C@H](CC3CCCC3)[C@@H](Oc3ccccc3)[C@H](C)OC2=O)c1O [Compound F27]
80 to 100%: pest or weed control at 100 ppm [1, 3] | pest or weed control at 100 ppm [1, 4] | pest or weed control at 100 ppm [2, 5] | pest or weed control at 100 ppm [2, 6]

CCOCC(=O)OCOc1c(OC)ccnc1C(=O)N[C@H]1CCC[C@H](CCOc2ccccc2)[C@@H](Oc2ccccc2)[C@H](C)OC1=O [Compound F182]
0 to 80%: pest or weed control at 121.5 g/ha [2, 6]
80 to 100%: pest or weed control at 100 ppm [1, 3] | pest or weed control at 121.5 g/ha [1, 3] | pest or weed control at 100 ppm [1, 4] | pest or weed control at 121.5 g/ha [1, 4] | pest or weed control at 100 ppm [2, 5] | pest or weed control at 121.5 g/ha [2, 5] | pest or weed control at 100 ppm [2, 6]

COc1ccc(C[C@H]2CCC[C@H](NC(=O)c3nccc(OC)c3O)C(=O)O[C@@H](C)[C@@H]2OCC2CC2)cc1 [Compound F30]
80 to 100%: pest or weed control at 100 ppm [1, 3] | pest or weed control at 100 ppm [1, 4] | pest or weed control at 100 ppm [2, 5] | pest or weed control at 100 ppm [2, 6]

CCOCC(=O)OCOc1c(OC)ccnc1C(=O)N[C@H]1CCC[C@H](Cc2ccc(F)cc2)[C@@H](OC(=O)C(C)C)[C@H](C)OC1=O [Compound F171]
80 to 100%: pest or weed control at 100 ppm [1, 3] | pest or weed control at 121.5 g/ha [1, 3] | pest or weed control at 100 ppm [1, 4] | pest or weed control at 121.5 g/ha [1, 4] | pest or weed control at 100 ppm [2, 5] | pest or weed control at 121.5 g/ha [2, 5] | pest or weed control at 100 ppm [2, 6]
0 to 80%: pest or weed control at 121.5 g/ha [2, 6]

COc1ccnc(C(=O)N[C@H]2CCC[C@H](CCBr)[C@@H](Oc3ccccc3)[C@H](C)OC2=O)c1O [Compound F50]
80 to 100%: pest or weed control at 100 ppm [1, 3] | pest or weed control at 100 ppm [1, 4] | pest or weed control at 100 ppm [2, 5] | pest or weed control at 100 ppm [2, 6]

COCC[C@H]1CCC[C@H](NC(=O)c2nccc(OC)c2O)C(=O)O[C@@H](C)[C@@H]1Oc1ccccc1 [Compound F45]
80 to 100%: pest or weed control at 100 ppm [1, 3] | pest or weed control at 100 ppm [1, 4] | pest or weed control at 100 ppm [2, 5] | pest or weed control at 100 ppm [2, 6]

COc1ccnc(C(=O)N[C@H]2CCC[C@H](C)[C@@H](OCc3ccccc3)[C@H](C)OC2=O)c1OCOC(C)=O [Compound F125]
80 to 100%: pest or weed control at 100 ppm [1, 3] | pest or weed control at 121.5 g/ha [1, 3] | pest or weed control at 100 ppm [1, 4] | pest or weed control at 121.5 g/ha [1, 4] | pest or weed control at 100 ppm [2, 5] | pest or weed control at 121.5 g/ha [2, 5] | pest or weed control at 100 ppm [2, 6] | pest or weed control at 121.5 g/ha [2, 6]

CCCO[C@@H]1[C@@H](Cc2ccccc2)CCC[C@H](NC(=O)c2nccc(OC)c2O)C(=O)O[C@H]1C [Compound F21]
80 to 100%: pest or weed control at 100 ppm [2, 5] | pest or weed control at 100 ppm [2, 6]
0 to 80%: pest or weed control at 100 ppm [1, 3] | pest or weed control at 100 ppm [1, 4]

COc1ccnc(C(=O)N[C@H]2CCC[C@H](CCOc3ccccc3)[C@@H](OCC3CC3)[C@H](C)OC2=O)c1O [Compound F57]
80 to 100%: pest or weed control at 100 ppm [1, 3] | pest or weed control at 100 ppm [2, 5] | pest or weed control at 100 ppm [2, 6]
0 to 80%: pest or weed control at 100 ppm [1, 4]

COc1ccnc(C(=O)N[C@H]2CCC[C@H](Cc3ccccc3)[C@@H](OC3CCCC3)[C@H](C)OC2=O)c1O [Compound F22]
80 to 100%: pest or weed control at 100 ppm [1, 3] | pest or weed control at 100 ppm [1, 4] | pest or weed control at 100 ppm [2, 5] | pest or weed control at 100 ppm [2, 6]

COc1ccnc(C(=O)N[C@H]2CCC[C@H](CCSC)[C@@H](OCC(C)C)[C@H](C)OC2=O)c1OCOC(C)=O [Compound F131]
80 to 100%: pest or weed control at 100 ppm [1, 3] | pest or weed control at 100 ppm [1, 4] | pest or weed control at 121.5 g/ha [1, 4] | pest or weed control at 100 ppm [2, 5] | pest or weed control at 121.5 g/ha [2, 5] | pest or weed control at 100 ppm [2, 6] | pest or weed control at 121.5 g/ha [2, 6]
0 to 80%: pest or weed control at 121.5 g/ha [1, 3]

COc1ccnc(C(=O)N[C@H]2CCC[C@H](Cc3ccc(F)cc3)[C@@H](OCC(C)C)[C@H](C)OC2=O)c1O [Compound F14]
80 to 100%: pest or weed control at 100 ppm [1, 3] | pest or weed control at 100 ppm [1, 4] | pest or weed control at 100 ppm [2, 5] | pest or weed control at 100 ppm [2, 6]

COc1ccnc(C(=O)N[C@H]2CCC[C@H](CCOCC3CC3)[C@@H](OCC3CC3)[C@H](C)OC2=O)c1OC(C)=O [Compound F83]
80 to 100%: pest or weed control at 100 ppm [1, 3] | pest or weed control at 100 ppm [2, 5] | pest or weed control at 121.5 g/ha [2, 5] | pest or weed control at 100 ppm [2, 6] | pest or weed control at 121.5 g/ha [2, 6]
0 to 80%: pest or weed control at 121.5 g/ha [1, 3] | pest or weed control at 121.5 g/ha [1, 4]

CCO[C@@H]1[C@@H](Cc2ccccc2)CCC[C@H](NC(=O)c2nccc(OC)c2O)C(=O)O[C@H]1C [Compound F23]
80 to 100%: pest or weed control at 100 ppm [1, 3] | pest or weed control at 100 ppm [1, 4] | pest or weed control at 100 ppm [2, 5] | pest or weed control at 100 ppm [2, 6]

Reference: patent US9265253B2, “Use of macrocyclic picolinamides as fungicides” (DOW AGROSCIENCES LLC, priority 2013, dated 2016)
